Columns and labels:
[1] = Animal weight during the study; type: in vivo; details: weighed weekly, 27-week study period
Text: The weights of the control animals were compared to those receiving hormonal treatment to better assess toxicity, especially that due to CDB-4124. The animals were weighed weekly during the 27-week study period.

[2] = system: T47Darom cells; assay: Crystal violet cell proliferation assay in aromatase-overexpressing T47D cells; type: cell-based; details: Homo sapiens, 96 h, 4 μM alone, 4 days
Text: Untreated cells were used as a control. The crystal violet assay was used to measure cell proliferation. The dye in this assay, crystal violet, stains DNA. Upon solubilization, the amount of dye taken up by the cells can be quantitated in a spectrophotometer.

[3] = system: rabbit uterus; assay: Anti-McGinty and anti-Clauberg assays; type: in vivo; details: average of anti-McGinty and anti-Clauberg results relative to CDB-2914 = 1.00
In short: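 Immature female rabbits were primed with 5 μg estradiol s.c. daily for 6 days. Anti-McGinty: compound given intraluminally into a ligated uterine segment, with progesterone 267 μg/day s.c. for 3 days. Anti-Clauberg: compound oral or s.c. with progesterone 160 μg/day for 5 days. Histological endometrial proliferation inhibition, averaged over both assays, is given relative to CDB-2914.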

COCC(=O)[C@@]1(OC(C)=O)CC[C@H]2[C@@H]3CCC4=CC(=O)CCC4=C3[C@@H](c3ccc(N(C)C)cc3)C[C@@]21C [CDB-4124, 21-methoxy-17α-acetoxy-11β-(4 N,N-dimethylaminophenyl)-19-norpregna-4,9-diene-3,20-dione]
toxicity by animal weight, treated vs. control (in words) [1]: not toxic, even at a high dose level
inhibition at 4 µM [2]: < 30%
rabbit Biol. Act. [3]: 3.60
